# From patent publication US7365231B2, “Compound with antitumor activity and preparation method therefor” (National Taiwan University of Science & Technology, priority 2005, dated 2008)
# Key:
# HT-29 cells = experiment: Cell cycle analysis by flow cytometry; type: cell-based, human
# Description: […] […] HT-29 cells were mainly in G0/G1 phase (84.1-86.0%), and only a few percent of cells in S phase (7.4-8.0%) after exposure to 4 μM DPA for 48-72 h. […] The G0/G1 arrest was not induced in the HCT-15 cells treated with 1-8 μM DPA for 24-72 h. […] DPA exerted the dose specific effect for the induced G0/G1 arrest on Colo 205 cells. […] In addition, we noted that DPA-mediated accumulation of Colo205 and HT 29 cells in G1 phase (>80%) was similar to that of DPD (Anti-Cancer Drug 2004; 15:277-80). It is likely that the induced G1-arrest without concomitant apoptosis on Colo 205 and HT 29 colon cancer cells is one unique property of structure I.
# Colo 205 cells [1] = experiment: Cell cycle analysis by flow cytometry; type: cell-based, human
# Description: (§1) The cell cycle progression of Colo205, HT 29 and HCT-15 cells was examined using flow cytometry after exposure to 1, 2, 4 or 8 μM DPA for 72 hours. […] HT-29 cells were mainly in G0/G1 phase (84.1-86.0%), and only a few percent of cells in S phase (7.4-8.0%) after exposure to 4 μM DPA for 48-72 h. […] The G0/G1 arrest was not induced in the HCT-15 cells treated with 1-8 μM DPA for 24-72 h. […] DPA exerted the dose specific effect for the induced G0/G1 arrest on Colo 205 cells. […] In addition, we noted that DPA-mediated accumulation of Colo205 and HT 29 cells in G1 phase (>80%) was similar to that of DPD (Anti-Cancer Drug 2004; 15:277-80). It is likely that the induced G1-arrest without concomitant apoptosis on Colo 205 and HT 29 colon cancer cells is one unique property of structure I.
# HCT-15 cells = experiment: Cell cycle analysis by flow cytometry; type: cell-based, human
# Description: as §1
# Colo 205 cells [2] = experiment: Reversibility of DPA-induced growth inhibition after drug withdrawal; type: cell-based, human
# Description: To further investigate whether the DPA-induced growth inhibition was reversible, Colo 205 cells were treated with DPA for 72 hours, and the cells were withdrawn from DPA by culturing in fresh medium for another 48 or 72 hours. […] One possibility is that the relatively lipophilic nature of DPA or DPD reduced cellular efflux after the initial drug exposure. It is inferred that the irreversible property of adamantane and diamantane derivatives provides an advantage to prolong the anticancer activity.
# [3] = tested on: human colon cancer Colo 205 xenografts; experiment: In vivo antitumor effect of DPA and/or CPT-11, xenografts; set-up: species or system ICR nude mice; details: DPA 20 mg/kg i.p. twice a week; end of experiment
# Description: To further investigate whether DPA could enhance the antitumoral activity of the chemotherapeutic agent CPT-11, Colo 205 cells were treated with DPA or DPA in combination with CPT-11. Cancer cells were transplanted into ICR nude mice, and when the tumors were palpable (30˜35 mm^3), the mice were treated either with vehicle control, CPT-11 or DPA (20 mg/kg, i.p., twice a week). Tumour volume(V) was calculated according to the following formula: V(mm^3)=0.4AB^2, where A and B are the longest diameter and the shortest diameter, respectively (Cancer Res. 1966; 26:1787-1800). […] The tumor size of DPA in combination with CPT-11-treated mice was a 73% decrease as compared with that of CPT-11-treated mice.
# [4] = Toxicity, body weight and histology, DPA twice a week; type: in vivo, ICR nude mice
structure (smiles),measurement,setting,value
"Nc1ccc(Oc2ccc(C3(c4ccc(Oc5ccc(N)c(O)c5)cc4)C4CC5CC(C4)CC3C5)cc2)cc1O [DPA, 2,2-bis(4-(4-amino-3-hydroxyphenoxy)phenyl)adamantane]",G0/G1 cell-cycle arrest and apoptosis,HT-29 cells; HT 29,G0/G1 cell-cycle arrest without concomitant apoptosis
same,accumulation of cells in G1 phase,HT-29 cells; HT 29,> 80%
same,cells in G0/G1 phase,"HT-29 cells; HT-29, 4 μM DPA for 48-72 h",84.1-86.0%
same,cells in S phase,"HT-29 cells; HT-29, 4 μM DPA for 48-72 h",7.4-8.0%
same,G0/G1(%),"HT-29 cells; HT-29, DPA 1 μM, 24 h",56.6%
same,G2/M(%),"HT-29 cells; HT-29, DPA 1 μM, 24 h",10.3%
same,S(%),"HT-29 cells; HT-29, DPA 1 μM, 24 h",33.1%
same,G0/G1(%),"HT-29 cells; HT-29, DPA 1 μM, 48 h",61.6%
same,G2/M(%),"HT-29 cells; HT-29, DPA 1 μM, 48 h",9.4%
same,S(%),"HT-29 cells; HT-29, DPA 1 μM, 48 h",29.0%
same,G0/G1(%),"HT-29 cells; HT-29, DPA 1 μM, 72 h",72.6%
same,G2/M(%),"HT-29 cells; HT-29, DPA 1 μM, 72 h",7.3%
same,S(%),"HT-29 cells; HT-29, DPA 1 μM, 72 h",20.1%
same,G0/G1(%),"HT-29 cells; HT-29, DPA 2 μM, 24 h",67.0%
same,G2/M(%),"HT-29 cells; HT-29, DPA 2 μM, 24 h",10.0%
same,S(%),"HT-29 cells; HT-29, DPA 2 μM, 24 h",23.1%
same,G0/G1(%),"HT-29 cells; HT-29, DPA 2 μM, 48 h",77.5%
same,G2/M(%),"HT-29 cells; HT-29, DPA 2 μM, 48 h",4.7%
same,S(%),"HT-29 cells; HT-29, DPA 2 μM, 48 h",17.8%
same,G0/G1(%),"HT-29 cells; HT-29, DPA 2 μM, 72 h",67.3%
same,G2/M(%),"HT-29 cells; HT-29, DPA 2 μM, 72 h",2.9%
same,S(%),"HT-29 cells; HT-29, DPA 2 μM, 72 h",29.9%
same,G0/G1(%),"HT-29 cells; HT-29, DPA 4 μM, 24 h",72.1%
same,G2/M(%),"HT-29 cells; HT-29, DPA 4 μM, 24 h",10.9%
same,S(%),"HT-29 cells; HT-29, DPA 4 μM, 24 h",17.1%
same,G0/G1(%),"HT-29 cells; HT-29, DPA 4 μM, 48 h",84.1%
same,G2/M(%),"HT-29 cells; HT-29, DPA 4 μM, 48 h",8.5%
same,S(%),"HT-29 cells; HT-29, DPA 4 μM, 48 h",7.4%
same,G0/G1(%),"HT-29 cells; HT-29, DPA 4 μM, 72 h",86.0%
same,G2/M(%),"HT-29 cells; HT-29, DPA 4 μM, 72 h",6.1%
same,S(%),"HT-29 cells; HT-29, DPA 4 μM, 72 h",8.0%
same,G0/G1(%),"HT-29 cells; HT-29, DPA 8 μM, 24 h",77.0%
same,G2/M(%),"HT-29 cells; HT-29, DPA 8 μM, 24 h",9.6%
same,S(%),"HT-29 cells; HT-29, DPA 8 μM, 24 h",13.3%
same,G0/G1(%),"HT-29 cells; HT-29, DPA 8 μM, 48 h",79.5%
same,G2/M(%),"HT-29 cells; HT-29, DPA 8 μM, 48 h",10.0%
same,S(%),"HT-29 cells; HT-29, DPA 8 μM, 48 h",10.6%
same,G0/G1(%),"HT-29 cells; HT-29, DPA 8 μM, 72 h",86.3%
same,G2/M(%),"HT-29 cells; HT-29, DPA 8 μM, 72 h",6.2%
same,S(%),"HT-29 cells; HT-29, DPA 8 μM, 72 h",7.5%
same,accumulation of cells in G1 phase,Colo 205 cells [1]; Colo205,> 80%
same,G2/M(%),"Colo 205 cells [1]; Colo 205, DPA 1 μM, 72 h",10.1%
same,S(%),"Colo 205 cells [1]; Colo 205, DPA 1 μM, 72 h",29.6%
same,cells in G2/M phase,HCT-15 cells; 8 μM DPA for 24-48 h,6.9-7.6%
same,G0/G1 arrest,HCT-15 cells; 1-8 μM DPA for 24-72 h,not induced
same,G0/G1(%),"HCT-15 cells; DPA 1 μM, 24 h",31.4%
same,G2/M(%),"HCT-15 cells; DPA 1 μM, 24 h",18.1%
same,S(%),"HCT-15 cells; DPA 1 μM, 24 h",50.6%
same,G0/G1(%),"HCT-15 cells; DPA 1 μM, 48 h",39.1%
same,G2/M(%),"HCT-15 cells; DPA 1 μM, 48 h",15.8%
same,S(%),"HCT-15 cells; DPA 1 μM, 48 h",45.1%
same,G0/G1(%),"HCT-15 cells; DPA 1 μM, 72 h",51.8%
same,G2/M(%),"HCT-15 cells; DPA 1 μM, 72 h",13.2%
same,S(%),"HCT-15 cells; DPA 1 μM, 72 h",35.0%
same,G0/G1(%),"HCT-15 cells; DPA 2 μM, 24 h",31.8%
same,G2/M(%),"HCT-15 cells; DPA 2 μM, 24 h",14.2%
same,S(%),"HCT-15 cells; DPA 2 μM, 24 h",54.0%
same,G0/G1(%),"HCT-15 cells; DPA 2 μM, 48 h",35.2%
same,G2/M(%),"HCT-15 cells; DPA 2 μM, 48 h",16.0%
same,S(%),"HCT-15 cells; DPA 2 μM, 48 h",48.8%
same,G0/G1(%),"HCT-15 cells; DPA 2 μM, 72 h",49.2%
same,G2/M(%),"HCT-15 cells; DPA 2 μM, 72 h",14.3%
same,S(%),"HCT-15 cells; DPA 2 μM, 72 h",36.6%
same,G0/G1(%),"HCT-15 cells; DPA 4 μM, 24 h",30.6%
same,G2/M(%),"HCT-15 cells; DPA 4 μM, 24 h",11.2%
same,S(%),"HCT-15 cells; DPA 4 μM, 24 h",58.2%
same,G0/G1(%),"HCT-15 cells; DPA 4 μM, 48 h",30.5%
same,G2/M(%),"HCT-15 cells; DPA 4 μM, 48 h",14.3%
same,S(%),"HCT-15 cells; DPA 4 μM, 48 h",55.3%
same,G0/G1(%),"HCT-15 cells; DPA 4 μM, 72 h",40.8%
same,G2/M(%),"HCT-15 cells; DPA 4 μM, 72 h",17.2%
same,S(%),"HCT-15 cells; DPA 4 μM, 72 h",42.1%
same,G0/G1(%),"HCT-15 cells; DPA 8 μM, 24 h",39.6%
same,G2/M(%),"HCT-15 cells; DPA 8 μM, 24 h",6.9%
same,S(%),"HCT-15 cells; DPA 8 μM, 24 h",53.5%
same,G0/G1(%),"HCT-15 cells; DPA 8 μM, 48 h",37.5%
same,G2/M(%),"HCT-15 cells; DPA 8 μM, 48 h",7.6%
same,S(%),"HCT-15 cells; DPA 8 μM, 48 h",54.9%
same,G0/G1(%),"HCT-15 cells; DPA 8 μM, 72 h",38.2%
same,G2/M(%),"HCT-15 cells; DPA 8 μM, 72 h",11.9%
same,S(%),"HCT-15 cells; DPA 8 μM, 72 h",49.9%
same,proliferation activity after removal of DPA,"Colo 205 cells [2]; 1 μM DPA 72 h, then 48-72 hours in fresh medium",reversed and returned to control level
same,reversal of growth inhibition after removal of DPA,"Colo 205 cells [2]; 2, 4 or 8 μM DPA 72 h, then 48-72 hours in fresh medium",no reversal effect
same,cell viability,"Colo 205 cells [2]; haemocytometer, treated cells except 8 μM DPA",> 90%
same,tumor size compared to control groups,[3],significantly (P<0.05) decreased
same,acute toxicity,"[4]; DPA 20~80 mg/kg, i.p., twice a week",no obviously acute toxicity
same,body weight,"[4]; DPA-treated mice, twice a week",no significant reduction in body weight
same,"tissue damage in liver, lung and kidney",[4]; tissue slices stained with haematoxylin and eosin,no tissue damage was observed
